Experimental data as given in patent US5876715A, “Antibodies that bind novel carbohydrate ligands (myelorollins) that cause E-selectin dependent cell rolling, and uses thereof” (The Biomembrane Institute, priority 1996, dated 1999).
“Also recorded” adds a separate entry of the source.

Columns and labels:
[1] = target: T1, E-selectin-Ig fusion protein (Homo sapiens, UniProt P16581); assay: Direct binding of ganglioside-coated latex beads to E-selectin-Ig coated fluorescent beads by flow cytometry; settings: ganglioside-coated latex beads mixed with E-selectin-Ig fluorescent beads
T1 construct: Fc is only a tag
T1 sequence (P16581 22-610): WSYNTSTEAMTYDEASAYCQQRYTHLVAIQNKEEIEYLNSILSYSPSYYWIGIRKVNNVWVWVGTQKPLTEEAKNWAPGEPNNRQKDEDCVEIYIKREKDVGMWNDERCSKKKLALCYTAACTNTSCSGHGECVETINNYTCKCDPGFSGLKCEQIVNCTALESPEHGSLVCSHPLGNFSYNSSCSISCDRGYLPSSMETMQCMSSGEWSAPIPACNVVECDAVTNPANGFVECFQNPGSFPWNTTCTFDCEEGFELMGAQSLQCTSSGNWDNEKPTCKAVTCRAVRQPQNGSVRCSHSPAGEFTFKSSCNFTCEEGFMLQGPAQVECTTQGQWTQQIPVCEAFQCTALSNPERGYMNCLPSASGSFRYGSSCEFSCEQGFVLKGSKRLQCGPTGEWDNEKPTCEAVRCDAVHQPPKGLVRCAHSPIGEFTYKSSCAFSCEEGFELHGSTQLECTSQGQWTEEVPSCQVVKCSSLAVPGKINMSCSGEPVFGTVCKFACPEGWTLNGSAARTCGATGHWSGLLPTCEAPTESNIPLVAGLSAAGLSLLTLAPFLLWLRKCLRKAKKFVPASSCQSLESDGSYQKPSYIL
Protocol: 5×10^6 polystyrene latex beads (diameter […]) (IDC Spheres™; IDC, Portland, Oreg.) were washed with ethanol by centrifugation. 1 μg of GSL in 50 μL of ethanol was added to the washed beads and the mixture was evaporated under nitrogen stream. The beads were resuspended in 1% BSA in PBS(+) and washed twice by centrifugation. Washed beads were blocked with 3% BSA in PBS(+) at room temperature for 2 hr. After centrifugation, beads were resuspended in 1% BSA in PBS(+) with 0.1% azide and stored at 4° C. Yellow-green fluorescent sulfated latex beads (diameter 1 μm) (Molecular Probes, Inc., Portland, Oreg.) were coated with goat anti-human IgG (Fc-fragment specific) antibody (Jackson Immunoresearch Lab, West Grove, Pa.) according to manufacturer's protocol. After washing 3× with PBS, beads were blocked with 3% BSA in PBS at 4° C. for 2 hr. Blocked beads (about 5×10^8) were mixed with 1.5 mL of E- or P-selectin-Ig fusion protein containing culture supernatant (about 1 μg/mL fusion protein) from CHO transfectants (Handa et al., 1995 Int. J. Oncol. 6:773-781) with a blood mixer at 4° C. for 6-18 hr. This mixing procedure was repeated 3 times more using new culture supernatant containing the fusion protein. After washing with PBS, beads were incubated in 1 mL PBS containing 50 μg human IgG (Jackson Immunoresearch). For preparation of control beads, human IgG was used at 1 μg/mL, instead of fusion protein. The ganglioside-coated beads were mixed with the fluorescent beads at room temperature for various durations. The resulting suspension was subjected to flow cytometric analysis. Conditions of each assay are detailed below.
Adhesion under conditions of E- or P-selectin-binding to various gangliosides was assessed by a novel, sensitive method using E- or P-selectin-coated fluorescent beads (FIGS. 2 and 3). Adhesion was determined by aggregation of polystyrene beads coated with myelorollin, and selectin-coated fluorescent beads. Gangliosides were coated on non-fluorescent polystyrene beads and mixed with fluorescent beads coated with E- or P-selectin in the presence or absence of EDTA. Since aggregation occurs under brief, strong agitation, the process is neither "static" nor "dynamic" adhesion, in which myelorollin is presented as immovable solid phase. In this system, solid phases containing both myelorollin and selectin are in dynamic condition. Binding was determined by cytofluorometry. Ganglioside fractions used in this experiment were the same as described in Table 1. In addition: Sdiy^2, sialosyl Le^x -Le^x (VI^3 NeuAcV^3 FucIII^3 FucnLc6 Cer); SLe^x (IV^3 NeuAcIII^3 FucnLc4 Cer). These designated structures are based on ^1 H NMR, mass spectrometry. Binding index was defined as mean fluorescence intensity (MFI) of ganglioside fraction divided by MFI of sialylparagloboside (IV^3 NeuAcnLc4 Cer).
Referring to FIG. 2: open columns, E-selectin-IgG beads. Lighter shaded columns, E-selectin-IgG beads in the presence of 5 mM EDTA. Darker shaded columns, P-selectin-IgG beads. Solid columns, human IgG control beads. The binding of myelorollin to E-selectin beads was completely abolished in the presence of EDTA; myelorollin was unable to bind to P-selectin.
Binding index was defined as MFI of sample divided by MFI of sialylparagloboside as in FIG. 2. Open columns, E-selectin-IgG beads preincubated with control mouse IgG. Solid columns, E-selectin-IgG beads preincubated with mAb E1C. […]

[2] = system: CHO cells permanently expressing E-selectin; settings: TLC overlay, Stroud et al. 1995, 1996; cited from earlier work

## VI^3 NeuAcV^3 FucIII^3 FucnLc6 Cer [SLe^x -Le^x, reference compound]
[1]; listed as Str. 3
  binding to E-selectin beads (binding index, MFI relative to sialylparagloboside): did show binding; also recorded: bound to E-selectin

## VI^3 NeuAcnLc6 Cer [Fr. 7]
[1]
  binding to E-selectin beads (binding index, MFI relative to sialylparagloboside): no binding to E-selectin
[1]; listed as Str. 1
  binding to E-selectin beads (binding index, MFI relative to sialylparagloboside): no binding whatsoever

## X^3 NeuAcVII^3 FucV^3 FucnLc10 Cer [Fr. 13-1]
[1]
  binding to E-selectin beads (binding index, MFI relative to sialylparagloboside): clear binding; also recorded: bind strongly to E-selectin
[2]
  E-selectin binding/adhesion under static conditions in previous studies: capable of binding E-selectin under static conditions

## X^3 NeuAcVII^3 FucnLc10 Cer [Fr. 12-2]
[1]
  binding to E-selectin beads (binding index, MFI relative to sialylparagloboside): weak adhesion
